Read-outs that look alike come from different tables or passages of the source. Where a SMILES comes first, the peptide text is derived from it.

From publication PMC3401419 (Journal of the American Chemical Society, 2012) come the findings set out here.

Experiment [1] concerns the target T1, Recombinant human somatic ACE (sACE-1) (Homo sapiens, UniProt P12821). The experiment in a line: Time-dependent inactivation of sACE-1 with coreactants. The following applies: pH 7.4, 37 °C, same concentration as corresponding lisinopril complex.
Experiment [2] has as its target T1, Recombinant human somatic ACE (sACE-1). To be noted: pH 7.4.
Experiment [3] shares this target. Put plainly: biochemical.
Experiment [4] has the same target. Put plainly: Concentration-dependent inhibition of sACE-1. The following applies: inhibitor and substrate concentration varied, Dixon plots.

T1 sequence (P12821 30-1261): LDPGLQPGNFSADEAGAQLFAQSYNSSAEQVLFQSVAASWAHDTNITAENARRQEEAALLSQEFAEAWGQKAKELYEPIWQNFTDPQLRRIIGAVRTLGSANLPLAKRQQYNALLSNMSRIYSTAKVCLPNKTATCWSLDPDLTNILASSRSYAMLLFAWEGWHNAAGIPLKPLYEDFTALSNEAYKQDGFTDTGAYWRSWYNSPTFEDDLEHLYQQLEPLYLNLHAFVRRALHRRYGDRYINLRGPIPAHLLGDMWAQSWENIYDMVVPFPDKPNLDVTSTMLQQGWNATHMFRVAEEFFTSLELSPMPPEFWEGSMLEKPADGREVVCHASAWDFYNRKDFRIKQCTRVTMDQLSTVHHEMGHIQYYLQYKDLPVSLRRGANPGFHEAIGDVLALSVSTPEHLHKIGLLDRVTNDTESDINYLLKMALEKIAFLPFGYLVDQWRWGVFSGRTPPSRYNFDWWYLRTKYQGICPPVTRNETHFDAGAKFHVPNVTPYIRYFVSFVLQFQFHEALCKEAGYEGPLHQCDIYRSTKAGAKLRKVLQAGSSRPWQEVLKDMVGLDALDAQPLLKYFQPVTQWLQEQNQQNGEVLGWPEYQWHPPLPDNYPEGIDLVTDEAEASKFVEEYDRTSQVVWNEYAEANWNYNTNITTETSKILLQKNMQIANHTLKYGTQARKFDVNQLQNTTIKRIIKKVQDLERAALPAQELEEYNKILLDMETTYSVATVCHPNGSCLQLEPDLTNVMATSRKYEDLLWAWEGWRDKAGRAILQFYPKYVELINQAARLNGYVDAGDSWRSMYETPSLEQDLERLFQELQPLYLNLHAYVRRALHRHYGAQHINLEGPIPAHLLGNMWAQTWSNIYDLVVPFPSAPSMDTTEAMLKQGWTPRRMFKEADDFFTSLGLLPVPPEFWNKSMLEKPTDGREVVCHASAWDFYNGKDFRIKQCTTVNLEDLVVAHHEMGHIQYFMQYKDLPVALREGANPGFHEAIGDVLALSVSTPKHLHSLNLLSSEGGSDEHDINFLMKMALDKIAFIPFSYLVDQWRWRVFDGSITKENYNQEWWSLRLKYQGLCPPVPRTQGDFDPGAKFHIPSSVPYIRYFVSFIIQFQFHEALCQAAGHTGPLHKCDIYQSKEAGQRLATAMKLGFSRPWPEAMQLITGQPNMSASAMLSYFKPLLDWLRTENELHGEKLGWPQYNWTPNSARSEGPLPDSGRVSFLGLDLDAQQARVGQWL

The IC50 is the concentration that gives 50% inhibition. Take `O=C([O-])CN(CCN(CC(=O)[O-])CC(=O)[O-])CC(=O)[O-].[Cu+2]` [Cu-EDTA]: the “k2 for inactivation of sACE-1, M-chelate without lisinopril (control)” value in experiment [1] (Ascorbate) was 2,000 ± 3,000 {-- ^d} M^−1min^−1; in experiment [1] (H2O2) it was < 3,000 {-- ^d} M^−1min^−1. Also, the IC50 in experiment [2] is 26 µM. As to `O=C([O-])CN(CC(=O)[O-])CC(=O)O.[Cu+2]` [Cu-NTA], the IC50 in experiment [2] came out at 36 µM. As for `O=C(O)CN1CCN(CC(=O)O)CCN(CC(=O)O)CCN(CC(=O)O)CC1` [DOTA, 1,4,7,10-tetraazacyclododecane-1,4,7,10-tetraacetic acid], the IC50 in experiment [3] turned out to be 7 µM. Same read-out and setting: next, `O=C(O)CN(CCN(CC(=O)O)CC(=O)O)CC(=O)O` [EDTA, Ethylenediamine-tetraacetic acid]: 7.2 µM. As for `NCC(=O)NCC(=O)N[C@@H](Cc1cnc[nH]1)C(=O)O` [GGH] (H-Gly-Gly-His-OH), in experiment [2], the half-maximal inhibitory concentration (IC50) is more than 100 µM. Turning to `O=C(O)CN(CC(=O)O)CC(=O)O` [NTA, Nitrilotriacetic acid], the 50% inhibitory concentration (IC50) in experiment [3] is 32 µM. For `NCCCC[C@H](N[C@@H](CCc1ccccc1)C(=O)O)C(=O)N1CCC[C@H]1C(=O)O` [lisinopril], the “mode of inhibition of sACE-1” value in experiment [4] is listed as “competitive”.
